According to patent US20120115871A1, “METHOD OF TREATMENT OF DEPRESSION” (Supemus Pharmaceuticals, Inc, priority 2009, published 2012):

Columns and labels:
5-HT6 (h) = 5-HT6 (h) (Homo sapiens, UniProt P50406); assay: biochemical; settings: read-out: % Inhib.
Source text: (§1) Briefly, recombinant 5-HT7 receptors were expressed in a CHO cell line. The receptors were then saturated with a tritiated receptor-specific ligand at concentrations known to be saturating.

5-HT1D = 5-HT1D (Rattus norvegicus, UniProt P28565); assay: biochemical; settings: read-out: % Inhib.
Source text: as §1

5-HT4e (h) = 5-HT4e (h) (Homo sapiens, UniProt Q13639); assay: biochemical; settings: read-out: % Inhib.
Source text: as §1

5-HT5A (h) = 5-HT5A (h) (Homo sapiens, UniProt P47898); assay: biochemical; settings: read-out: % Inhib.
Source text: as §1

5-HT3 (h) = 5-HT3 (h) (Homo sapiens, UniProt P46098); assay: biochemical; settings: read-out: % Inhib.
Source text: as §1

[1] = target: noradrenergic reuptake transporters (Homo sapiens, UniProt P23975); settings: Tatsumi et al [1997]; cited from earlier work
[2] = target: serotonin reuptake inhibitor (Homo sapiens, UniProt P31645); settings: very weak activity; Tatsumi et al [1997]; cited from earlier work
5-HT7 (h) = 5-HT7 (h) (Homo sapiens, UniProt P34969); settings: range of concentrations; FIG. 2
Procedure: The apparent dissociation constants for antagonists Kb were calculated using the modified Cheng Prusoff equation.

[3] = background statement; cited from earlier work

Sequence of 5-HT6 (h) (P50406 whole entry): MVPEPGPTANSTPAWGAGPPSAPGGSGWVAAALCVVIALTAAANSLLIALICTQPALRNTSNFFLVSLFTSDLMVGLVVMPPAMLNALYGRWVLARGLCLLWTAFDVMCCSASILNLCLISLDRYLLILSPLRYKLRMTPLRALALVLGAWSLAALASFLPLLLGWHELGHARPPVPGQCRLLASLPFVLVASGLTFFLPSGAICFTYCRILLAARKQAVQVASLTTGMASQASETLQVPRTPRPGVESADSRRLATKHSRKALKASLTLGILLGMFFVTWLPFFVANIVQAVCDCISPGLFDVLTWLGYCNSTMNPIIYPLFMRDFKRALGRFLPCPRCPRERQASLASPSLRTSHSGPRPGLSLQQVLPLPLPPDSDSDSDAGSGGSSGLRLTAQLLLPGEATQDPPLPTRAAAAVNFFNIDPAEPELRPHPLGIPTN
Sequence of serotonin reuptake inhibitor (P31645 whole entry): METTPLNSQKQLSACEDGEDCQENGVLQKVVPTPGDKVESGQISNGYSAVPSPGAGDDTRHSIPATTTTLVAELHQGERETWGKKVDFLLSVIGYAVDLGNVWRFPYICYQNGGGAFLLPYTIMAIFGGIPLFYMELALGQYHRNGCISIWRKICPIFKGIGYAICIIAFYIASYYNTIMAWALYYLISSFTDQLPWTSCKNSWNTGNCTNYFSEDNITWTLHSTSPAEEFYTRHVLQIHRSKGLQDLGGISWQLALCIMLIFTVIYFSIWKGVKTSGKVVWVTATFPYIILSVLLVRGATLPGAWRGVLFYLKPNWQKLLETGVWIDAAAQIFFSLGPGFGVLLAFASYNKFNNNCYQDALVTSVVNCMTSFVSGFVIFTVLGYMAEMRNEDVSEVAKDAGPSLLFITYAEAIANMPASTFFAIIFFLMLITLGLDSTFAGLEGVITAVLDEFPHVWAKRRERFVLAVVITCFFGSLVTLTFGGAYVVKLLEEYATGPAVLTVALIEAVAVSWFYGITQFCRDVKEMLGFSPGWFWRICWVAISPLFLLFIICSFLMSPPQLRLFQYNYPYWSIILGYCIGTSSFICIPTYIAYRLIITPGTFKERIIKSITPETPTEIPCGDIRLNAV
Sequence of noradrenergic reuptake transporters (P23975 whole entry): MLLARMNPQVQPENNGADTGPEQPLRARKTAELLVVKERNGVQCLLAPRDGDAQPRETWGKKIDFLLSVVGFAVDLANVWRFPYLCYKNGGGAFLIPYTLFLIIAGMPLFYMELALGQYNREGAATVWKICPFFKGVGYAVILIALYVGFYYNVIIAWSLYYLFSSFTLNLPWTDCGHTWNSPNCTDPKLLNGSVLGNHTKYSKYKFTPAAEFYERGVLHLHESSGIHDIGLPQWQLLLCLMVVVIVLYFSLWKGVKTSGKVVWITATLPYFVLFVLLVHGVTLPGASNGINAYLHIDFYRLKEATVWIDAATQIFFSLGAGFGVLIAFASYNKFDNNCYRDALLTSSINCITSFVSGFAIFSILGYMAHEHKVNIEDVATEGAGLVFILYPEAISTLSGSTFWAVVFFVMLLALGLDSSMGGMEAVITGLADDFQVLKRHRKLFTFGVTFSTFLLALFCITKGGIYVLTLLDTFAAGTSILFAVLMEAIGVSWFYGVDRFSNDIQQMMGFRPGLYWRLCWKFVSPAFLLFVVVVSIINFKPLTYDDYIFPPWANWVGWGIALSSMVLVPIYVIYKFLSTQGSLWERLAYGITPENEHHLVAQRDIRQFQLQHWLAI
Sequence of 5-HT4e (h) (Q13639 1-378 isoform Q13639-5): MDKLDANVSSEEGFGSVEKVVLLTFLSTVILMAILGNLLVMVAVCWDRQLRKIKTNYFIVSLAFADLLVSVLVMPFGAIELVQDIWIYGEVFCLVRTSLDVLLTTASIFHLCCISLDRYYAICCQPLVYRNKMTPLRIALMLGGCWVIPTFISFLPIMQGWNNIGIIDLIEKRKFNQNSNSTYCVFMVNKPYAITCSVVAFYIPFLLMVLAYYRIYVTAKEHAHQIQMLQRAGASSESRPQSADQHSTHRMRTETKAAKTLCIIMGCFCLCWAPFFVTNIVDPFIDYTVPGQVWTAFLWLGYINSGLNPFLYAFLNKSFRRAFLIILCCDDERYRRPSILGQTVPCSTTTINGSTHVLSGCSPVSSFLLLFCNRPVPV
Sequence of 5-HT1D (P28565 whole entry): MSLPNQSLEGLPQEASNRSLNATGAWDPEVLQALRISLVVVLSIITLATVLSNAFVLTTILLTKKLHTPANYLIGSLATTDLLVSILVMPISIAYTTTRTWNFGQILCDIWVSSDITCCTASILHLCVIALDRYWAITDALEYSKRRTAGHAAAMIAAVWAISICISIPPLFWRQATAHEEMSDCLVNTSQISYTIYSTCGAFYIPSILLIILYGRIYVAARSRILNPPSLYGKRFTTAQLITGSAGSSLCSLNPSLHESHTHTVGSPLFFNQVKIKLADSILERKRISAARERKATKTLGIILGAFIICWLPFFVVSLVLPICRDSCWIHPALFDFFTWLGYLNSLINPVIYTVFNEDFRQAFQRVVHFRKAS
Sequence of 5-HT5A (h) (P47898 whole entry): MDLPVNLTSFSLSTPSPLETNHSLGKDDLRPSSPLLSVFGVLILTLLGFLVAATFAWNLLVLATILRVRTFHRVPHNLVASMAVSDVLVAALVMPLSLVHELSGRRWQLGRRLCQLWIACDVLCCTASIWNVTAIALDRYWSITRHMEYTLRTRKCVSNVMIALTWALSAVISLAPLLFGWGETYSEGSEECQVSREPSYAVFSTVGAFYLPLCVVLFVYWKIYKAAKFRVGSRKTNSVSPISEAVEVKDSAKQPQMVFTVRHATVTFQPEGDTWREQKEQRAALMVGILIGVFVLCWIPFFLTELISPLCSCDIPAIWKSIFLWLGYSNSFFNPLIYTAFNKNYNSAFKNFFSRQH
Sequence of 5-HT7 (h) (P34969 whole entry): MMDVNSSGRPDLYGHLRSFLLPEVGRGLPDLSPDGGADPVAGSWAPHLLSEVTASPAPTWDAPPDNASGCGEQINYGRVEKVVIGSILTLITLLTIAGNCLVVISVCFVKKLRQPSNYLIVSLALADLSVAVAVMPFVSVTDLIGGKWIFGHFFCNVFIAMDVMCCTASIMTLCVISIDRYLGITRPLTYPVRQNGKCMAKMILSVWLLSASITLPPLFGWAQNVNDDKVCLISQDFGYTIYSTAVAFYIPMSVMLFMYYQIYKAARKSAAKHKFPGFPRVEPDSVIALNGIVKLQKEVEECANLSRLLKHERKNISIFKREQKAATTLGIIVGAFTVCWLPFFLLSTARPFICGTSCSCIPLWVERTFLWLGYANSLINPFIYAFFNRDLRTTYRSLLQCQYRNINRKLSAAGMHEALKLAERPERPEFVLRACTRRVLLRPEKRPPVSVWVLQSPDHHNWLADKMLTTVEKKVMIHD
Sequence of 5-HT3 (h) (P46098 24-478): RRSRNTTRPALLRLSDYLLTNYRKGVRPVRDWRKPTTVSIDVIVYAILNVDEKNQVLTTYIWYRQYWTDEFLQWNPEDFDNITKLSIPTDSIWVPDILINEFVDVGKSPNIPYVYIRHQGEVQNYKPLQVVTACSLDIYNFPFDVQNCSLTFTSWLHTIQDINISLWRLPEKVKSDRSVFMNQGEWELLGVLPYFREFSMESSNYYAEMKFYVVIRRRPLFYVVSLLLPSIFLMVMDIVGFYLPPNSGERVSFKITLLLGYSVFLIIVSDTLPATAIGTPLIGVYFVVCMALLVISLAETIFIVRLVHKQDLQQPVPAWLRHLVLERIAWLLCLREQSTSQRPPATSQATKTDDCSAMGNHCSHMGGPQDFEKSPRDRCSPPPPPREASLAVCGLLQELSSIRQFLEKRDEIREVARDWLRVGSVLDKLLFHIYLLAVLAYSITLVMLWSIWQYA

Work on `CCOc1ccccc1OCC1CNCCO1` (racemic) [viloxazine, Viloxazine] yielded an inhibition at 0.002 µM (5-HT6 (h)) of 6%, an inhibition at 0.001 µM (5-HT1D) of 18% and an inhibition at 0.0003 µM (5-HT4e (h)) of 16%. For the same compound, the inhibition at 0.001 µM (5-HT5A (h)) was 15%, the inhibition at 0.0005 µM (5-HT3 (h)) was 18% and the “inhibition of noradrenergic reuptake transporters” value [1] was 155 nM. For the same compound, the “activity at the serotonin reuptake inhibitor” value [2] was 17.3 μm and the “agonist effect (cAMP response)” value (5-HT7 (h)) was “no measurable response”.
For `CCOc1ccccc1OC[C@@H]1CNCCO1` (single isomer, unassigned) [S(−)-isomer], the “pharmacological activity relative to R(+)-isomer” value [3] is given as “five times more pharmacologically active than the R(+)-isomer”.
